Columns and labels:
HT-29 [1] = test: Anti-austerity antiproliferative activity against human HT-29 cells after 72 hrs in presence of 10 % serum; type: cell-based; conditions: HT-29, 72 h
[2] = Anti-austerity antiproliferative activity against human PANC1 cells after 72 hrs in presence of 10 % serum; type: cell-based; conditions: PANC-1, 72 h
HT-29 [3] = test: Anti-austerity antiproliferative activity against nutrient-deprived human HT-29 cells after 72 hrs in presence of 0.5% serum; type: functional, cell-based; conditions: HT-29, 72 h
[4] = Anti-austerity antiproliferative activity against nutrient-deprived human PANC1 cells after 72 hrs in presence of 0.5% serum; type: functional, cell-based; conditions: PANC-1, 72 h

| IC50 (HT-29 [1]) [µM] | IC50 (HT-29 [3]) [µM] | SMILES | IC50 [2] [µM] | IC50 [4] [µM] |
| --- | --- | --- | --- | --- |
| 109 | > 500 | O=C(OC[C@@]1(O)C(=O)C=C[C@H]2[C@@H]1[C@H]1C=C[C@@H]2C(=O)[C@]1(O)COC(=O)c1ccccc1)c1ccccc1 | 123 | > 500 |
| 39 | 18 | O=C(OC[C@@]1(O)C(=O)C=C[C@H]2[C@@H]1[C@H]1C=C[C@@H]2C(=O)[C@]1(O)COC(=O)c1ccc(Cl)cc1)c1ccc(Cl)cc1 | 84 | 77 |
| 35 | 22 | COc1ccc(C(=O)OC[C@@]2(O)C(=O)C=C[C@H]3[C@@H]2[C@H]2C=C[C@@H]3C(=O)[C@]2(O)COC(=O)c2ccc(OC)cc2)cc1 | 78 | 52 |
| 39 | 27 | O=C(OC[C@@]1(O)C(=O)CC[C@H]2[C@@H]1[C@H]1CC[C@@H]2C(=O)[C@]1(O)COC(=O)c1ccccc1)c1ccccc1 | 81 | 86 |

— ChEMBL document CHEMBL3286232, “The enone motif of (+)-grandifloracin is not essential for 'anti-austerity' antiproliferative activity” (Bioorg Med Chem Lett, 2014)
